Source: patent US20100120690A1, “Polypeptides Having Antimicrobial Activity and Polynucleotides Encoding Same” (Novozymes Adenium Biotech A/S, priority 2005, published 2010)

Columns and labels:
[1] = test system: panel of 6 different strains of Staphylococcus aureus; test: Average MIC, NCCLS/CLSI guidelines using caMHB (Example 6); assay type: cell-based; conditions: average over 6 S. aureus strains, duplicate; MIC above 32 counted as 64; read after 18-24 hours at 37° C.
Summary of the method: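 MICs were determined by broth dilution per NCCLS/CLSI in caMHB against six S. aureus strains (four MSSA, two MRSA), with peptides at 0.03–32 microgram/mL, read after 18-24 h at 37° C. Each was tested in duplicate and the two results averaged; MICs above 32 micrograms/mL were counted as 64.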

Staphylococcus carnosus = test: TAPS (Trans Acting Peptide System) assay, radial diffusion read-out; assay type: cell-based; design: key: classified as 4>3>2>1; whereas 4 is better than 1; classified as 4>3>2>1; classified as 4>3>2>1; wildtype activity corresponds to 1; conditions: peptide expressed in E. coli
Description: A range of antimicrobial polypeptides, which are variants of SEQ ID NO: 1, were tested in the TAPS assay. TAPS may be used to identify new or improved genes encoding peptides that can kill or inhibit the growth of target cells (see PCT application WO 2004/033715). The TAPS assay, an acronym for Trans Acting Peptide System, is based on having a sensitive host producing a peptide followed by screening for its activity in trans against an indicator strain. The advantage of this system is based on that the antimicrobial peptide is expressed in the Gram-negative bacterium E. coli and its antimicrobial activity can be monitored on different microbes including Gram-negatives, positives or fungi. Additionally, TAPS offers the possibility to produce correctly folded AMPs containing disulfide bonds in the host cells, thereby retaining their antimicrobial activities.
The TAPS approach requires first, that expression of the peptide is under control of an inducible promoter with tight regulation, because the host cells are sensitive to the peptide when producing it. Secondly, the produced peptide has to be released to the media so that it can interact with the target organism.
The TAPS screening can be carried out either in solid or liquid media. On solid media, a plasmid library is initially introduced into E. coli host cells. […] In the next step, the filter containing the colonies is transferred to LB growth medium containing inducer (0.1% arabinose) to permit peptide synthesis. Subsequently, the target strain, for example S. carnosus, is overlaid onto the plate and allowed to grow for 12-16 hours at 37° C. Finally, visual inspection of the host cells capable of reducing the proliferation of the target cells is performed and the nucleotide sequence encoding for the antimicrobial peptide is recovered from the host cells. DNA sequence analysis of the variants is obtained to elucidate the nature of the peptide.
As mentioned above, the TAPS screening can also be performed using liquid medium. This procedure requires the use of robotics to analyze large number of clones. In this system, the host E. coli origami cells are transformed with the plasmid library and plated out on LB medium+0.2% glucose+ampicillin (200 mg/L). Independent colonies are then inoculated into 96 or 384-well plates containing 200 micro-L of TB medium+ampicillin (200 mg/L) and cultured overnight at 37° C. These cultures are then replicated robotically and grown to exponential phase until inducer (0.1% arabinose) is added to trigger peptide synthesis. The next step consists in hydrolyzing the cells such that the peptide is released to the media by hot acid hydrolysis. This treatment consists on adding 1 M sodium Phosphate buffer pH 2.3 to obtain a final pH approximately of 2.3 and incubating the cultures overnight at 80° C. Next day, a 25 micro-L aliquot of the hydrolyzed cultures is used to perform an activity test against the desired target organisms. The activity test performed was a Radial Diffusion Assay (RDA) where an aliquot of the hydrolyzed cultures was added to the agarose media inoculated with the target strain, S. carnosus. […] Measurements of the diameter of the clearing zones were performed to quantify the potency of the antimicrobial activity of the peptides.
The antimicrobial activity (against Staphylococcus carnosus) of the tested plectasin variants, which was measured using the TAPS assay, is shown in table 3. The antimicrobial activity corresponds to the clearing zone size and has been classified as 4>3>2>1; whereas 4 is better than 1, and wildtype activity corresponds to 1.

S. aureus = test: Minimal Inhibitory Concentration, NCCLS guidelines (Example 4); assay type: cell-based, Staphylococcus aureus; conditions: purified peptide
Description: (§1) The Minimal Inhibitory Concentration (MIC, micrograms/mL) was determined to test for their antimicrobial activity following the NCCLS guidelines (Clinical and Laboratory Standards Institute; formerly known as National Committee for Clinical and Laboratory Standards).

M. luteus = test: as above; assay type: cell-based, Micrococcus luteus; conditions: purified peptide
Description: as §1

B. subtilis = test: as above; assay type: cell-based, Bacillus subtilis; conditions: purified peptide
Description: as §1

[2] = test system: Staphylococcus aureus, ATCC 25923; test: MIC, NCCLS/CLSI guidelines (Example 5), strain B; assay type: cell-based; conditions: relative to wildtype Plectasin; average of two independent experiments
Summary of the method: (§2)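 Expressed, purified plectasin wild-type and variant peptides were tested for minimal inhibitory concentration under NCCLS/CLSI guidelines. Values are the mean of two independent experiments, scored relative to wild-type plectasin MIC: 0 >100%, 1 80-100%, 2 50-80%, 3 <50%.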

[3] = test system: Staphylococcus aureus, MRSA ST80 (2003); test: MIC, NCCLS/CLSI guidelines (Example 5), strain E; assay type: cell-based; conditions: relative to wildtype Plectasin; average of two independent experiments
Summary of the method: (§3)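 MICs of purified plectasin peptides are measured according to NCCLS/CLSI guidance. Each value averages duplicate independent experiments and is given as a category relative to wild-type: 0 above 100%, 1 80-100%, 2 50-80%, 3 below 50%.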

[4] = test system: Staphylococcus aureus, ATCC 29737; test: MIC, NCCLS/CLSI guidelines (Example 5), strain C; assay type: cell-based; conditions: relative to wildtype Plectasin; average of two independent experiments
Summary of the method: as §2

[5] = test system: Staphylococcus aureus, MRSA ST5 (2001); test: MIC, NCCLS/CLSI guidelines (Example 5), strain D; assay type: cell-based; conditions: relative to wildtype Plectasin; average of two independent experiments
Summary of the method: as §3

[6] = test system: Staphylococcus aureus, ATCC 29213; test: MIC, NCCLS/CLSI guidelines (Example 5), strain A; assay type: cell-based; conditions: relative to wildtype Plectasin; average of two independent experiments
Summary of the method: as §2

Row | Substance | Average MIC [1] [micrograms/mL] | Activity (antimicrobial activity, clearing zone size) (Staphylococcus carnosus) | other results
1 | GFGCKGPWDEDDMQCHNHCKSIKGYKGGYCAKGGFVCKCY [Mutation N5K] | 12 | 2 | –
2 | GFGCNGPWDEDDKQCHNHCKSIKGYKGGYCAKGGFVCKCY [Mutation M13K] | 12 | 3 | –
3 | GFGCNGPWDEDDKQCHNHCKSIKGYKGGYCAKGGFVCKCYR [M13K + Y40YR] | 12 | 4 | MIC against S. aureus (S. aureus): 2 micrograms/mL; MIC against M. luteus (M. luteus): 2 micrograms/mL; MIC against B. subtilis (B. subtilis): 0.25 micrograms/mL
4 | GFGCNGPWDEDDKQCHNHCKSIKGYKGGYCAKGGFVCRCY [M13K + K38R] | 6 | 4 | Relative MIC, strain B [2]: 3 (<50% of Plectasin wildtype MIC); Relative MIC, strain E [3]: 3 (<50% of Plectasin wildtype MIC); Relative MIC, strain C [4]: 3 (<50% of Plectasin wildtype MIC); Relative MIC, strain D [5]: 2 (50-80% of Plectasin wildtype MIC); Relative MIC, strain A [6]: 1 (80-100% of Plectasin wildtype MIC)
5 | GFGCNGPWDEDDKQCHNHCKSIKGYRGGYCAKGGFVCKCY [M13K + K26R] | 10 | 4 | –
6 | GFGCNGPWDEDDKQCHRHCKSIKGYKGGYCAKGGFVCKCY [M13K + N17R] | – | 3 | –
7 | GFGCNGPWDEDDKQCHRHCKSIKGYKGGYCAKGGFVCKCYR [M13K + N17R + Y40YR] | 8 | 3 | –
8 | GFGCNGPWDEDDMLCHNHCKSIKGYKGGYCAKGGFVCKCY [Mutation Q14L] | 13 | 4 | –
9 | GFGCNGPWDEDDMQCHHHCKSIKGYKGGYCAKGGFVCKCY [Mutation N17H] | – | 4 | –
10 | GFGCNGPWDEDDMQCHIHCKSIKGYKGGYCAKGGFVCKCY [Mutation N17I] | 14 | 2 | –
11 | GFGCNGPWDEDDMQCHNHCKFIKGYKGGYCTKGGFVCKCY [S21F + A31T] | – | 2 | –
12 | GFGCNGPWDEDDMQCHNHCKSIKGYRGGYCAKGGFVCKCY [Mutation K26R] | 15 | 3 | –
13 | GFGCNGPWDEDDMQCHNHCRSIKGYKGGYCAKGGFVCKCY [Mutation K20R] | – | 2 | –
14 | GFGCNGPWDEDDMQCHRHCKSIKGYKGGYCAKGGFVCKCYR [N17R + Y40YR] | – | 3 | –
15 | GFGCNGPWDEDDMQCHYHCKSIKGYKGGYCAKGGFVCKCY [Mutation N17Y] | 6 | 3 | Relative MIC, strain B [2]: 3 (<50% of Plectasin wildtype MIC); Relative MIC, strain E [3]: 2 (50-80% of Plectasin wildtype MIC); Relative MIC, strain C [4]: 3 (<50% of Plectasin wildtype MIC); Relative MIC, strain D [5]: 2 (50-80% of Plectasin wildtype MIC); Relative MIC, strain A [6]: 1 (80-100% of Plectasin wildtype MIC)
16 | GFGCNGPWDEDDMRCHNHCKSIKGYKGGYCAKGGFICKCY [Q14R + V36I] | – | 4 | –
17 | GFGCNGPWDEDDMRCHNHCKSIKGYKGGYCAKGGFVCKCY [Mutation Q14R] | 5 | 4 | Relative MIC, strain B [2]: 3 (<50% of Plectasin wildtype MIC); Relative MIC, strain E [3]: 0 (>100% of Plectasin wildtype MIC); Relative MIC, strain C [4]: 3 (<50% of Plectasin wildtype MIC); Relative MIC, strain D [5]: 3 (<50% of Plectasin wildtype MIC); Relative MIC, strain A [6]: 2 (50-80% of Plectasin wildtype MIC)
18 | GFGCNGPWDEDDMRCHNHCKSIKGYKGGYCAKGGFVCKCYR [Q14R + Y40YR] | – | 3 | –
19 | GFGCNGPWDEDDMRCHNHCKSIKGYRGGYCAKGGFVCKCY [Q14R + K26R] | 5 | 4 | –
20 | GFGCNGPWDEGDKQCHNHCKSIKGYRGGYCAKGGFVCKCY [D11G + M13K + K26R] | – | 3 | –
21 | GFGCNGPWDEGDKQCHNHCKSIKGYRGGYCAKGGFVCKCYR [D11G + M13K + K26R + Y40YR] | 12 | 4 | MIC against S. aureus (S. aureus): 0.50 micrograms/mL; MIC against M. luteus (M. luteus): 0.50 micrograms/mL; MIC against B. subtilis (B. subtilis): <0.03 micrograms/mL
22 | GFGCNGPWDEGDMQCHNHCKSIKGYRGGYCAKGGFVCKCY [D11G + K26R] | 11 | 2 | MIC against S. aureus (S. aureus): 2 micrograms/mL; MIC against M. luteus (M. luteus): 8 micrograms/mL; MIC against B. subtilis (B. subtilis): 0.50 micrograms/mL
23 | GFGCNGPWDEGDMQCHNHCKSIKGYRGGYCAKGGFVCKCYR (Synthetic antimicrobial polypeptide) [D11G + K26R + Y40YR] | 9 | 4 | Relative MIC, strain B [2]: 3 (<50% of Plectasin wildtype MIC); MIC against S. aureus (S. aureus): 0.50 micrograms/mL; MIC against M. luteus (M. luteus): 0.25 micrograms/mL; Relative MIC, strain C [4]: 3 (<50% of Plectasin wildtype MIC); Relative MIC, strain D [5]: 3 (<50% of Plectasin wildtype MIC); Relative MIC, strain A [6]: 3 (<50% of Plectasin wildtype MIC); MIC against B. subtilis (B. subtilis): 0.06 micrograms/mL
24 | GFGCNGPWDENDMQCHNHCKFIKGYKGGYCAKGGFVCKCY [D11N + S21F] | – | 4 | –
25 | GFGCYGPWDEDDMLCHNHCKSIKGYKGGYCAKGGFVCKCY [N5Y + Q14L] | – | 2 | –
26 | GFGCYGPWDEDDMQCHNHCKSIKGYKGGYCAKGGFVCKCY [Mutation N5Y] | – | 2 | –
27 | Q14K + K26R: variant of Plectasin (SEQ ID NO: 1) (GFGCNGPWDEDDMKCHNHCKSIKGYRGGYCAKGGFVCKCY) | 6 | – | Relative MIC, strain B [2]: 2 (50-80% of Plectasin wildtype MIC); Relative MIC, strain E [3]: 3 (<50% of Plectasin wildtype MIC); MIC against S. aureus (S. aureus): 2 micrograms/mL; MIC against M. luteus (M. luteus): 1 micrograms/mL; Relative MIC, strain C [4]: 3 (<50% of Plectasin wildtype MIC); Relative MIC, strain D [5]: 3 (<50% of Plectasin wildtype MIC); Relative MIC, strain A [6]: 3 (<50% of Plectasin wildtype MIC); MIC against B. subtilis (B. subtilis): 0.13 micrograms/mL
